From patent US20190359653A1, “SELECTIVE PEPTIDE INHIBITORS OF FRIZZLED” (Genentech, Inc., priority 2016, published 2019)
“Also recorded” adds a separate entry of the source.

Key:
[1] = system: Wnt3a-mediated β-catenin signaling in HEK293-TB cells; type: cell-based
[2] = biological target: T1, Wnt3a binding to FZD4 CRD (Homo sapiens, UniProt Q9ULV1); test: ELISA of biotinylated Wnt3a binding to FZD CRD-Fc; details: peptide 0-10 μM
T1 construct: hFZD4 CRD-Fc (cat no. 5847-FZ); purchased R&D systems 5847-FZ
T1 sequence (Q9ULV1 40-161 limits assumed): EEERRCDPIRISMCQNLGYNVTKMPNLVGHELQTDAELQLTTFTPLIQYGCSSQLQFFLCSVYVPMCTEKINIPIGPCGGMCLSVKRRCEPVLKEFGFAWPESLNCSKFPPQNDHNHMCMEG
Method: 384-well Maxisorp plates (cat. no. 464718; Thermo Scientific) were incubated with 30 μL of Neutravidin (cat. no. 31000, Thermo Scientific; 2 μg/mL in PBS) overnight at 4° C. Plates were then washed with PBST and blocked with PBS/1% BSA for 1 hour at RT and then washed with PBST prior to further processing. The binding assay was conducted in 96 well plates (cat no. 83007-374; VWR) which were blocked with PBS/1% BSA overnight at 4° C. hFZD4 CRD-Fc or hFZD7 CRD-Fc (63 ng/mL) were incubated with either Bio-Wnt3a (25 ng/mL) or Bio-Wnt5a (50 ng/mL) in the presence of 4-fold serial dilutions of the indicated peptide in PBS overnight at 4° C. All assays included hFZD9 CRD-mIgG2A protein as a negative control. hFZD7 CRD-His was suspended in 150 mM NaCl, 50 mM Tris-HCl at pH 7.5 and when used in assays an equal volume of the same buffer control was used. The binding assay mixtures were transferred to the Neutravidin coated plates and incubated for ˜1 h at RT. The wells were then washed with PBST, incubated with anti-hIgG1-HRP (1:10,000 suspended in PBS supplemented with 1% BSA; cat. no. A18817, Invitrogen), and washed again with PBST. The signal was developed with the addition of TMB reagent (following the manufacturer's recommendation; KPL; 50-76-00) for 15 min prior to the addition of an equal volume of 1 M phosphoric acid for 10 min Absorbance was measured at 450 nm using a Tekan M1000 plate reader. Values were collected and plotted using Prism Graphpad software. All assay conditions using peptides were at 1% DMSO final concentration.
Without being bound be theory, the substantial conformational change induced by dFz7-21 on hFZD7 CRD, as exemplified by the altered geometry of the lipid binding cavity, may facilitate the accommodation of two Wnt molecules simultaneously onto the hFZD7 CRD dimer (FIG. 4e-h).
Similar results were observed using Wnt3a. […] Binding of Wnt3a to FZD1 CRD, FZD2 CRD, and FZD7 CRD increased in the presence of dFz7-21 at concentrations below about 0.5 μM (FIG. 22E), with the most binding seen in the presence of 0.01 μM-0.05 μM dFz7-21. […] Fz7-21S had no effect on Binding of Wnt3a to any of the FZD CRDs tested (FIG. 22F).

[3] = system: intestinal epithelia of C57BL/6 mice; test: RT-PCR of intestinal epithelia from treated mice; type: in vivo, mouse; details: intraperitoneal, 6 h; FIGS. 20A-20C
Method: RNA from organoid samples was isolated using the RNeasy Micro kit (cat. no. 74004; Qiagen) according to the manufacturer's instructions. Mouse small intestine RNA was collected using the RNeasy Mini Kit (cat. no. 74104; Qiagen). qRT-PCR was performed in 10 μL reactions with 50 ng total RNA using One-step Real-time RT-PCR mastermix (cat. no. 4392938; Life Technologies) according to the manufacturer's instructions. Taqman probes from Life Technologies were used: Actb (Mm01205647_g1); Lgr5 (Mm01251801_m1); Axin2 (Mm00443610_m1); Ascl2 (Mm01268891_g1); Olfm4 (Mm01320260_m1); Muc2 (Mm01276696_m1); ACTB(Hs99999903_m1); ACTB(Mm00607939_s1); GAPDH (Mm99999915_g1); and GAPDH(Hs03929097_g1). RT-PCR reactions were run using a 7900HT Fast Real-Time PCR system (ABI) at the following thermal cycling conditions: Holding step of 30 min at 48° C., followed by a holding step of 10 min at 95° C., and 40 cycles of 10 sec at 95° C. and 1 min at 60° C. Values were normalized to actin transcript levels and then normalized to control as described in the figure legend.
C57BL/6 female mice (8 weeks old) were subjected to intraperitoneal injection once per hour (˜150-200 μL injection volume for five injections) until the indicated peptide dose was reached. […]
The pharmacological effect of dFz7-21 was further investigated in vivo. […] Following treatment, RT-PCR was performed to quantify transcript levels.

[4] = system: organoids derived from Lgr5-GFP mice; test: flow cytometry of Lgr5-GFP stem cells in organoids; type: cell-based, mouse; details: compared to control DMSO; FIGS. 41A-41C
Method: The pharmacological effect of dFz7-21 was further investigated by conducting RNA sequencing on intestinal organoid samples that were treated with dFz7-21 for 6 and 24 h. […] Concurrently, there was also an up-regulation of enterocyte markers (pro-differentiation) in the dFz7-21 treated organoids. Among the most down regulated genes upon dFz7-21 treatment were Lgr5, Olfm4 and Asc12. […] Finally, to assess the effect of dFz7-21 directly on stem cells, the presence of GFP+ stem cells in organoids derived from Lgr5-GFP mice was monitored as described in Tian, H. et al. “A reserve stem cell population in small intestine renders Lgr5-positive cells dispensable.” Nature 478, 255-259 (2011). Treatment with dFz7-21 reduced the number of Lgr5-GFP stem cells compared to control DMSO as assayed by flow cytometry (see FIGS. 41A-41C) and confocal microscopy (data not shown). In FIGS. 41A and 41B, Lgr5-GFP organoids were dissociated, treated with SYTOX and analyzed by flow cytometry.

| Sequence | improvement compared to monomeric Fz7-21 in inhibiting Wnt3a signaling ([1]; FIG. 15) | effect on Wnt3a binding to FZD4 CRD [2] | Lgr5, Ascl2 and Axin2 transcript levels [3] | number of Lgr5-GFP stem cells [4] | Reduction in fold potency vs. dimer [1] | inhibition of Wnt3a signaling [1] |
| --- | --- | --- | --- | --- | --- | --- |
| LPSDDLEFWCHVMY [dFz7-21] | ~40 fold | did not show any effect; also recorded: Neither Fz7-21 nor dFz7-21 had any effect | significantly down regulated | reduced | – | – |
| LPSDDLEFWSHVMY [Fz7-21S, negative control] | – | showed no effect | did not affect | – | >9,000 fold | not found to inhibit |
